This note sets out measurements from patent publication US20140357706A1, “Stearate Compounds” (THE UAB RESEARCH FOUNDATION, priority 2011, published 2014).

For data set [1], the system named is visceral adipocytes from ApoE knockout mice. In words: Expression of cIAP2, Bcl-2 and Bax in visceral adipocyte cultures. Particulars: 50 μM fatty acid; vs no additional fatty acid. The class given is cell-based. As for the experimental part: It was hypothesized that stearate induces apoptosis in visceral adipocytes by at least one of the following mechanisms: inhibition of cIAP2, activation of Bcl-2, and activation of BAX. […] Six cultures were exposed to each fatty acid or no fatty acid. The expression of cIAP2, Bcl-2, and Bax was measured in each culture. […] By decreasing levels of the cIAP2 and/or Bcl-2 polypeptides and increasing expression of the Bax polypeptide, stearate administration may lead to an increase in cellular apoptotic activity (such as but not limited to the visceral fat tissues). Without wishing to be bound by any given hypothetical model, it is proposed that this reduction in cIAP2 expression and this increase in Bax expression (independently or in combination) is responsible for the relative decrease in visceral fat tissue that is observed when animals are given a diet that is high in stearate.

Data set [2] concerns 3T3L1 preadipocytes. In words: Cell death and apoptosis of 3T3L1 preadipocytes (trypan blue, LDH, flow cytometry). The class given is cell-based, mouse. As to conditions: 50 μM, vs control; for Percentage of dead cells (trypan blue): 48 hour treatment; for Dead cells (flow cytometry): 48 hours; for Cytotoxicity (lactate dehydrogenase): after 24 hours. The procedure:
(§1) 50 μM of stearate, oleate or linoleate was used to treat 3T3L1 cells as this concentration is centered within the normal range for non-esterified stearate in the plasma of humans. Stearate, oleate, or linoleate was loaded onto fatty acid free BSA according to the method reported by Spector and Hoak (Spector and Hoak, 1969). Briefly, stearate (0.5 g) was dissolved in chloroform (100 mL) and mixed well with 10 g diatomaceous earth in a 1 liter flask. The mixture was stirred and dried under nitrogen until powder. Fatty acid free BSA (1 g) was dissolved in 100 mL with DMEM without phenol red and mixed with 3 g of the stearate/diatomaceous earth mixture and stirred for 30 minutes. The stearate/BSA solution was filtered through a 0.45 μm filter, and adjusted to pH 7.4. The concentration of stearate in the solution was detected by use of a NEFA C kit. Oleic and linoleate were loaded in the same way. […] Before the treatment with fatty acid, 3T3L1 preadipocytes were grown to 100%, and were starved in 2% FBS medium for 24 hours.
(§2) After treatment, 3T3L1 cells were harvested, washed with cold PBS, and then resuspended in 100 μl annexin-binding buffer (50 mM HEPES, 700 mM NaCl, 12.5 mM CaCl2, pH 7.4). Cell density was determined, and the cells were diluted to 10^6 cells. Then 5μL of Alex Fluo 488 annexin V and 1 μL propidium iodide (PI) were added. Cells were gently oscillated and incubated for 15 min at room temperature. After adding 400 μL of binding buffer to each tube, cells were kept on ice and analyzed by flow cytometry within 1 hour. Cells that stained positive for Alex Fluo 488 annexin V and negative for PI were considered to be apoptotic. Cells that stained positive for both Alex Fluo 488 annexin V and PI were considered either in the end stage of apoptosis, or necrosis. Cells that stained negative for both Alex Fluo 488 annexin V and PI were considered alive and not undergoing measurable apoptosis. A BD LSR II flow cytometer from Becton Dickinson was used in all flow experiments and the data were analyzed with BD FACSDiva™ software V.6.1.3.
(§3) Lactate dehydrogenase (LDH) release was measured using a cytotoxicity detection kit, according to the manufacture's protocol. After 3T3L1 cells were treated, 1 ml of cell culture medium was removed and centrifuged. The supernatant was retained for assaying. For determinations, 100 μl of LDH assay reagent was added to 100 μl of supernatant and incubated for 30 min at room temperature in the dark. Absorbance was measured at 490 nm. Background release from culture medium alone was subtracted before reporting. Maximum release was measured after adding 2% Triton X-100 to untreated cells.
(§4) After treatment, 3T3L1 cells were harvested and stained with 0.4% trypan blue solution. Cells in the four corners of the grid were counted under a conventional bright field binocular microscope.
(In flow cytometry, cells or beads pass a laser one at a time.)

Data set [3] has as its system differentiated 3T3L1 adipocytes. Nature of the data set: Necrosis and apoptosis of differentiated 3T3L1 adipocytes (trypan blue, LDH, flow cytometry). The class given is cell-based, mouse. As to conditions: 50 μM. As for the experimental part: 3T3L1 mouse fibroblast cells (ATCC, CL-173™) were maintained according to the manufacture's protocol, in Dulbecco's modified eagle's medium (DMEM) containing 10% Fetal Bovine Serum and antibiotics (M1 medium). Adipocyte differentiation was performed according to standard procedures (42). Briefly, the 3T3L1 fibroblasts were seeded at 30% confluence and allowed to grow to near 100% confluence. On the day after reaching maximum confluence, conversion was induced by replacing the M1 medium with M1 medium containing insulin (5 μg/ml), dexamethasone (0.25 μM), and 3-isobutyl-1-methyl-xanthine (0.5 mM). After 2 days, the cells were changed to M1 medium with insulin (5 μg/ml) for an additional 2 days. Thereafter, the cells were maintained in M1 medium without additives for 2 days.
as §1, §2, §3, §4

Data set [4] has as its system ERK. Nature of the data set: Immunoblot of phosphorylated ERK in Hs578T cells. The class given is cell-based, human. Particulars: PD98059 added to Hs578T cells. As for the experimental part:
(§5) The concentration of stearate used to treat the Hs578T cells was 50 μM. When EGF was used, the concentration was 1 nM EGF. Before the treatment with stearate or EGF, cells were first starved for 24-48 hours. Stearate was loaded onto fatty acid-free bovine serum albumin (BSA) according to the method reported by Spector et al. (13); briefly, stearate (0.5 g) was dissolved in chloroform (100 ml) and mixed well with 10 g diatomaceous earth in a 1 liter flask. The mixture was stirred and dried under nitrogen until powder. BSA is a physiological carrier of fatty acids and was used to avoid the introduction of organic solvents to solutions coming into contact with cells. Fatty acid-free BSA (1 g) was dissolved in 100 ml with Dulbecco's modified Eagle's medium without phenol red and mixed with 3 g of the stearate/diatomaceous earth mixture with stirring for 45 min. The stearate/BSA solution was filtered through a 0.45 μm filter, and adjusted to pH 7.4. The concentration of stearate in the solution was detected with the NEFA C Kit from Wako Chemicals GmbH (Neuss, Germany). All experimental data on Hs578T cells were controlled using fatty acid-free BSA control solutions that were put through the same preparatory procedure described for the stearate/BSA solution except for the fact that no fatty acid was added.
Cells were treated as described above, and lysed with lysis buffer. […]

The subject of data set [5] is p21^CIP1/WAF1, p27^KIP1, pCdk2. In words: Immunoblot of p21CIP1/WAF1, p27KIP1 and phosphorylated Cdk2 in Hs578T cells. The class given is cell-based, human. As for the experimental part: as §5
Cells were treated as described above, and lysed with lysis buffer. The supernatants of the lysates or the immunoprecipitates were loaded with Laemmli sample buffer on 10% sodium dodecyl sulfate-polyacrylamide gel electrophoresis gels after boiling at 100° C. for 5 min. Proteins were then transferred to a polyvinylidene difluoride membrane. The membranes were blocked overnight at 4° C. with blocking buffer containing 5% non-fat dried milk powder in Tris-buffered saline-T (25 mM Tris, 140 mM NaCl, 2.7 mM KCl, 0.05% Tween-20, pH 8.0), incubated with primary antibody in blocking buffer at room temperature for 1 hour and incubated with antirabbit or antimouse antibodies labeled with horseradish peroxidase (1:5000) in blocking buffer under the same conditions, and then washed three times for 10 min in Tris-buffered saline-T. The polyvinylidene difluoride membranes were washed and developed using enhanced chemiluminescence reagents.
(A western blot detects proteins with antibodies after separation by electrophoresis.)

The mark [6] stands for this setting: PD98059 in stearate-treated cells.

As to `CCCCC/C=C\C/C=C\CCCCCCCC(=O)O` [linoleate, linoleic acid], in data set [1], the “Expression of Bax” value was “increased the expression of Bax to a lesser extent” and the “Expression of cIAP2” value is on record as “no statistically significant effect”. Besides, in data set [2], the “Percentage of dead cells (trypan blue)” value is reported as “no significant changes”, the “Dead cells (flow cytometry)” value is “no significant effects”, the “Cytotoxicity (lactate dehydrogenase)” value was “did not change significantly” and the “Apoptotic cells (flow cytometry)” value is given as “No significant changes”. For the same compound, in data set [3], the “Cytotoxicity (lactate dehydrogenase in medium)” value is reported as “no significant changes”, the “Percentage of apoptotic cells (flow cytometry)” value is on record as “no significant changes”, the “Percentage of dead cells (flow cytometry)” value is recorded as “no significant changes” and the “Percentage of dead cells (trypan blue)” value is on record as “no significant changes”.

Turning to `COc1cccc(-c2cc(=O)c3ccccc3o2)c1N` [PD98059, 2′-amino-3′-methoxyflavone, reference compound], the “ERK phosphorylation induced by stearate and EGF” value in data set [4] is recorded as “blocked”. Moreover, the “Stearate-induced upregulation of p21^CIP1/WAF1” value in data set [5] (PD98059 added following stearate and EGF treatment) is “reverses”. In data set [5] (setting [6]), the “Stearate-induced decrease in pCdk2” value is recorded as “only partially reversed” and the “Stearate-induced increases in p27^KIP1” value is “did not reverse”.

Turning to `CCCCCCCC/C=C\CCCCCCCC(=O)O` [oleate, oleic acid], in data set [2], the “Percentage of dead cells (trypan blue)” value is “no significant changes”, the “Dead cells (flow cytometry)” value is reported as “significantly decreased”, the “Cytotoxicity (lactate dehydrogenase)” value is recorded as “significantly decreased” and the “Apoptotic cells (flow cytometry)” value is “decreased”. For the same compound, in data set [3], the “Cytotoxicity (lactate dehydrogenase in medium)” value is given as “no significant changes”, the “Percentage of apoptotic cells (flow cytometry)” value was “no significant changes”, the “Percentage of dead cells (flow cytometry)” value is “no significant changes” and the “Percentage of dead cells (trypan blue)” value is reported as “no significant changes”.
